Paper PMC9908766, “Characterizing metabolic drivers of Clostridioides difficile infection with activity-based hydrazine probes” (Frontiers in Pharmacology, 2023)

Target: T1, D-proline reductase (PR), PrdA subunit (Clostridioides difficile, UniProt Q17ZY9)
T1 construct: native PR complex purified from C. difficile VPI 10463; processed PrdA (~23 kDa) with N-terminal pyruvoyl; with PrdB
Assay: fluorometric OPA assay of 5-aminovalerate production by purified PR
Type: biochemical

In the case of `NNCCc1ccccc1` [compound 5, phenelzine], the IC50 is reported as 460 ± 30 µM.
